These results are taken from ChEMBL document CHEMBL1201862, “PubChem BioAssay data set” (2004).

Some test systems named below: M19-MEL; LXFL 529; SNB-78; DMS-273; DMS-114; KM-20L2; XF498; RXF 631; HOP-18.
Holding throughout (assay): DTP human tumour cell line panel, 48 h

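The compound was tested at five concentrations on cells cultured in 96-well plates, with a 48-hour exposure period. GI50 is the concentration that inhibits growth by half.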 Calls of active or inactive are those of the source. Rule as the data show it: active = GI50 up to about 1.1 µM and inactive = higher.

Turning to `Cc1ccc(C(=O)N(C2CCCCC2)C2CCCCC2)cc1/N=N/N(C)C`, the GI50 with M19-MEL is 19.1 µM (inactive); in the assay on LXFL 529, 14.6 µM (inactive); in the assay with SNB-78 it was 15.8 µM (inactive); in the assay on DMS-273 it was 17.1 µM (inactive).

On to `O=C(N[C@H](CO)[C@H](O)c1ccc([N+](=O)[O-])cc1)C(Cl)Cl` [CHLORAMPHENICOL], for which the GI50 with M19-MEL, in the assay with DMS-114, in the assay on LXFL 529, in the assay on DMS-273 and with KM-20L2 was > 100 µM (inactive) in each case.

For the compound `CCOc1ccc(NC2=NC(=O)C(CC(=O)Nc3ccc(Cl)cc3Cl)S2)cc1` (stereo not given), the GI50 in the assay with M19-MEL, in the assay with DMS-114, with LXFL 529, in the assay with SNB-78, in the assay on XF498 and in the assay on RXF 631 was > 100 µM (inactive) throughout. Also, the GI50 in the assay with DMS-273 and in the assay with KM-20L2 was > 100 µM (inactive) in each case.

Regarding `O=[N+]([O-])c1cccc(C2=NN(c3ccccc3)C3c4cc(Br)ccc4OCC23)c1` (stereo not given), the GI50 with M19-MEL, in the assay on DMS-114, in the assay on LXFL 529, in the assay on HOP-18, in the assay with SNB-78 and in the assay with XF498 was > 100 µM (inactive) each time. In addition, the GI50 in the assay on DMS-273 and in the assay with KM-20L2 was > 100 µM (inactive) in each case.

On to `CCOC(=O)N1c2c(ccn2C)-c2ccn(C)c2N1C(=O)OCC`, for which the GI50 in the assay on M19-MEL is 26.4 µM (inactive); with DMS-114, > 10 µM (inactive); in the assay on LXFL 529, 17.2 µM (inactive); in the assay on XF498 it was 17 µM (inactive); in the assay on RXF 631 it was 18.9 µM (inactive); with KM-20L2, 14.6 µM (inactive).

For the compound `NC(=O)c1cc(C2OC(CO)C(O)C2O)nn1-c1ccc([N+](=O)[O-])cc1` (stereo not given), the GI50 in the assay with DMS-114 is > 100 µM (inactive); with LXFL 529 it was > 100 µM (inactive); with HOP-18 it was > 100 µM (inactive); in the assay on SNB-78, 36.7 µM (inactive); in the assay on XF498, > 100 µM (inactive); in the assay with DMS-273, > 100 µM (inactive). For the same compound, the GI50 in the assay on KM-20L2 was > 100 µM (inactive).

As to `C[C@@H]1O[C@@H](O[C@H]2[C@H](Oc3cc(O)c4c(=O)cc(-c5ccc(O)cc5)oc4c3)O[C@H](CO)[C@@H](O)[C@@H]2O)[C@H](O)[C@H](O)[C@H]1O` [RHOIFOLIN], the GI50 in the assay with M19-MEL, in the assay on DMS-114, in the assay with LXFL 529, in the assay on HOP-18, in the assay on SNB-78 and in the assay on XF498 was > 100 µM (inactive) each time. Moreover, the GI50 with DMS-273 and with KM-20L2 was > 100 µM (inactive) throughout.

With `CN(C)/N=N/c1[nH]cnc1C(N)=O` [DACARBAZINE], the GI50 in the assay with M19-MEL is 64.4 µM (inactive); in the assay on DMS-114, 71.3 µM (inactive); in the assay on LXFL 529, 98.2 µM (inactive); with HOP-18 it was 15.5 µM (inactive); in the assay on SNB-78 it was 63.2 µM (inactive); in the assay on XF498 it was 21.8 µM (inactive). The GI50 in the assay on RXF 631 is 54.1 µM (inactive); in the assay with DMS-273 it was 12.8 µM (inactive); in the assay on KM-20L2, 53.6 µM (inactive).

On to `O=C(Nc1nc2ncn(CCNCCn3cnc4nc(NC(=O)c5ccccc5)[nH]c(=O)c43)c2c(=O)[nH]1)c1ccccc1`, for which the GI50 with M19-MEL, with LXFL 529, with HOP-18, in the assay with SNB-78, in the assay on XF498 and with DMS-273 was > 100 µM (inactive) each time. The GI50 in the assay on KM-20L2 was > 100 µM (inactive).

In the case of `COC(=O)[C@@]12CC(C(C)C)[C@H]3CC(C(=O)C=C1OC)[C@H]32` (stereo not given in full), the GI50 in the assay with M19-MEL, with DMS-114, in the assay with LXFL 529, in the assay with HOP-18, with SNB-78 and in the assay with XF498 was > 100 µM (inactive) in each case. Further, the GI50 in the assay on RXF 631, in the assay with DMS-273 and with KM-20L2 was > 100 µM (inactive) throughout.

For `O=c1c2ccccc2oc2ccccc12.Oc1cccc2cccnc12`, the GI50 with DMS-114 was 1.63 µM (inactive); in the assay on LXFL 529 it was 1.56 µM (inactive); in the assay with DMS-273 it was 1.94 µM (inactive).

In the case of `CCN1C(=O)C/C(=C\C(C)=O)Nc2ccccc21`, the GI50 in the assay on M19-MEL, in the assay with DMS-114, in the assay with LXFL 529, in the assay on SNB-78, in the assay with XF498 and in the assay on DMS-273 was > 100 µM (inactive) each time.

Turning to `COC(=O)C(C(=O)C(=O)Nc1nc2ccc(OC)cc2s1)c1cnc2ccccc2n1` (stereo not given), the GI50 with M19-MEL, with LXFL 529, in the assay on SNB-78, in the assay on XF498 and in the assay with KM-20L2 was > 100 µM (inactive) each time.

Regarding `Cc1ccc(-c2c(N)nc(NC#N)nc2CCC(=O)Nc2ccccc2[N+](=O)[O-])cc1`, the GI50 in the assay on M19-MEL, in the assay on DMS-114, with LXFL 529, with HOP-18, with SNB-78 and in the assay with DMS-273 was > 100 µM (inactive) each time. Moreover, the GI50 with KM-20L2 was > 100 µM (inactive).

As for `Oc1ccccc1/C=N/c1ccccc1/N=C/c1ccccc1O`, the GI50 was > 100 µM (inactive) with M19-MEL; 8.89 µM (inactive) in the assay with DMS-114; 31.7 µM (inactive) with LXFL 529; 47.6 µM (inactive) with XF498; 85.9 µM (inactive) in the assay with DMS-273; > 100 µM (inactive) with KM-20L2.

As to `N=CCCN(CCC=N)c1ccc(/C=C2\CN(NC(=O)c3ccc(Cl)cc3)C(c3ccccc3)=N2)cc1`, the GI50 in the assay on DMS-114, with LXFL 529, with HOP-18, in the assay on SNB-78, in the assay on RXF 631 and in the assay on DMS-273 was > 100 µM (inactive) in each case. Besides, the GI50 in the assay with KM-20L2 is > 100 µM (inactive).

For `CN(C)CCC(=O)N1C/C(=C\c2ccc(Cl)c(Cl)c2)C(=O)/C(=C/c2ccc(Cl)c(Cl)c2)C1`, the GI50 in the assay with M19-MEL is 0.427 µM (active); in the assay with DMS-114, 0.452 µM (active); in the assay on LXFL 529, 0.211 µM (active); in the assay with HOP-18, 1.02 µM (active); in the assay with SNB-78 it was 0.476 µM (active); with XF498 it was 1.12 µM (active). For the same compound, the values for the GI50 in the assay with RXF 631, in the assay on DMS-273 and in the assay with KM-20L2 were 0.455 µM (active), 0.15 µM (active) and 0.577 µM (active), respectively.

With `CCOC(=O)N[C@H]1CCc2cc(O)c(OC)c(OC)c2-c2ccc(SC)c(=O)cc21`, the GI50 in the assay on M19-MEL was 0.0189 µM (active); in the assay with DMS-114 it was 0.0193 µM (active); with LXFL 529, < 0.0122 µM (active); with SNB-78, < 0.01 µM (active); in the assay with XF498, 0.0261 µM (active); in the assay on RXF 631, 0.0207 µM (active). Further, the GI50 with DMS-273 is 0.0149 µM (active); in the assay on KM-20L2 it was 0.0128 µM (active).

Take `O=C(O)c1ccc(/N=N/c2cc(S(=O)(=O)O)c3cccnc3c2O)cc1`: the GI50 in the assay on M19-MEL, with DMS-114, with SNB-78, with XF498, in the assay with DMS-273 and in the assay with KM-20L2 was > 100 µM (inactive) each time.

Consider `Cc1nc2c(nc1C)C(=O)c1ccccc1C2=O`, for which the GI50 with M19-MEL is 0.258 µM (active); with DMS-114 it was 9.64 µM (inactive); in the assay on LXFL 529, 24.4 µM (inactive); in the assay on HOP-18, 3.29 µM (inactive); with SNB-78, 26.9 µM (inactive); in the assay with RXF 631, 11.9 µM (inactive). Moreover, the GI50 is 3.41 µM (inactive) with DMS-273 and 17.7 µM (inactive) with KM-20L2.

As to `FC(F)(F)c1ccccc1C1SCc2nc3ccccc3n21` (stereo not given), the GI50 was 43.3 µM (inactive) in the assay on M19-MEL; 33 µM (inactive) in the assay on DMS-114; 99.8 µM (inactive) with LXFL 529; > 100 µM (inactive) in the assay with HOP-18; > 100 µM (inactive) with SNB-78; 38 µM (inactive) in the assay with DMS-273.

With `COc1cc2ccc(CC(=O)O)cc2cc1OC`, the GI50 in the assay on M19-MEL, in the assay with DMS-114, in the assay with LXFL 529, with HOP-18, with SNB-78 and with RXF 631 was > 100 µM (inactive) each time. Also, the GI50 in the assay on DMS-273 and in the assay with KM-20L2 was > 100 µM (inactive) each time.

As to `CN1CCN(CCSC2Cc3cc(Cl)ccc3Sc3ccccc32)CC1` (stereo not given), the GI50 with M19-MEL was 2.13 µM (inactive); in the assay on DMS-114, 4.9 µM (inactive); in the assay with LXFL 529, 2.89 µM (inactive); in the assay on HOP-18, 9.1 µM (inactive); in the assay on XF498, 3.03 µM (inactive); in the assay with DMS-273 it was 2.1 µM (inactive). Further, the GI50 in the assay with KM-20L2 was 1.74 µM (inactive).

Consider `CCCCOC(=O)NC(=O)c1cn(CCSCCOC(=O)NCCCCCCNC(=O)OCCSCCn2cc(C(=O)NC(=O)OCCCC)c(=O)[nH]c2=O)c(=O)[nH]c1=O`, for which the GI50 in the assay with M19-MEL was > 100 µM (inactive); in the assay with DMS-114, 93.8 µM (inactive); in the assay with LXFL 529, 27 µM (inactive); with HOP-18, 31.6 µM (inactive); in the assay on SNB-78 it was 90.4 µM (inactive); in the assay with RXF 631, 38.4 µM (inactive). In addition, the GI50 is 95.5 µM (inactive) in the assay on DMS-273 and > 100 µM (inactive) in the assay on KM-20L2.

For orientation: GI50 means the concentration giving 50% growth inhibition.
